Laboratory results taken from the supplement of paper PMC10307832.

Columns and labels:
Test in all cases: relative viability (nuclei count vs DMSO), 5 days (fraction); higher = more cells survive
VX-702 + Crizotinib = compound: NC(=O)c1ccc(N(C(N)=O)c2c(F)cccc2F)nc1-c1ccc(F)cc1F [VX-702] + C[C@@H](Oc1cc(-c2cnn(C3CCNCC3)c2)cnc1N)c1c(Cl)ccc(F)c1Cl [Crizotinib] (partner 1 µM)
In short: (§1)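 Lung cancer cell lines, seeded in 1536-well plates, were treated the following day by pin tool with a single drug or with five library-drug doses (not always all listed) in √10 steps on top of a fixed anchor-drug dose. Cells were fixed and nuclei stained in one step after 5 days, and nuclei were counted. Relative viability is the nuclei count for treated wells divided by that for vehicle wells, reported as medians of duplicate plates.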

VX-702 + Linsitinib = compound: NC(=O)c1ccc(N(C(N)=O)c2c(F)cccc2F)nc1-c1ccc(F)cc1F [VX-702] + C[C@]1(O)C[C@@H](c2nc(-c3ccc4ccc(-c5ccccc5)nc4c3)c3c(N)nccn32)C1 [Linsitinib] (partner 1 µM)
In short: as §1

Dabrafenib + Palbociclib = compound: CC(C)(C)c1nc(-c2cccc(NS(=O)(=O)c3c(F)cccc3F)c2F)c(-c2ccnc(N)n2)s1 [Dabrafenib] + CC(=O)c1c(C)c2cnc(Nc3ccc(N4CCNCC4)cn3)nc2n(C2CCCC2)c1=O [Palbociclib] (partner 0.5 µM)
In short: as §1

Dabrafenib + Navitoclax = compound: CC(C)(C)c1nc(-c2cccc(NS(=O)(=O)c3c(F)cccc3F)c2F)c(-c2ccnc(N)n2)s1 [Dabrafenib] + CC1(C)CCC(c2ccc(Cl)cc2)=C(CN2CCN(c3ccc(C(=O)NS(=O)(=O)c4ccc(N[C@H](CCN5CCOCC5)CSc5ccccc5)c(S(=O)(=O)C(F)(F)F)c4)cc3)CC2)C1 [Navitoclax] (partner 0.5 µM)
In short: as §1

## LCLC-103H
VX-702 + Crizotinib; first compound 0.02 µM
  relative viability: 1.04
VX-702 + Crizotinib; first compound 0.2 µM
  relative viability: 0.973
VX-702 + Crizotinib; first compound 0.6325 µM
  relative viability: 1.13
VX-702 + Crizotinib; first compound 2 µM
  relative viability: 1.07
VX-702 + Linsitinib; first compound 0.02 µM
  relative viability: 1.23
VX-702 + Linsitinib; first compound 0.2 µM
  relative viability: 0.954
VX-702 + Linsitinib; first compound 0.6325 µM
  relative viability: 1.12
VX-702 + Linsitinib; first compound 2 µM
  relative viability: 1
Dabrafenib + Palbociclib; first compound 0.003 µM
  relative viability: 0.467
Dabrafenib + Palbociclib; first compound 0.009487 µM
  relative viability: 0.495
Dabrafenib + Palbociclib; first compound 0.03 µM
  relative viability: 0.432
Dabrafenib + Palbociclib; first compound 0.09487 µM
  relative viability: 0.455
Dabrafenib + Palbociclib; first compound 0.3 µM
  relative viability: 0.514

## ChaGo-K-1
VX-702 + Crizotinib; first compound 0.02 µM
  relative viability: 1.09
VX-702 + Crizotinib; first compound 0.2 µM
  relative viability: 1.1
VX-702 + Crizotinib; first compound 0.6325 µM
  relative viability: 1.21
VX-702 + Crizotinib; first compound 2 µM
  relative viability: 1.23
Dabrafenib + Palbociclib; first compound 0.003 µM
  relative viability: 0.874
Dabrafenib + Palbociclib; first compound 0.009487 µM
  relative viability: 0.925
Dabrafenib + Palbociclib; first compound 0.03 µM
  relative viability: 0.838
Dabrafenib + Palbociclib; first compound 0.09487 µM
  relative viability: 0.89
Dabrafenib + Palbociclib; first compound 0.3 µM
  relative viability: 0.996
Dabrafenib + Navitoclax; first compound 0.009487 µM
  relative viability: 0.891
Dabrafenib + Navitoclax; first compound 0.03 µM
  relative viability: 0.966
Dabrafenib + Navitoclax; first compound 0.09487 µM
  relative viability: 0.986
Dabrafenib + Navitoclax; first compound 0.3 µM
  relative viability: 1.06

## NCI-H1395
VX-702 + Linsitinib; first compound 0.02 µM
  relative viability: 0.965
VX-702 + Linsitinib; first compound 0.2 µM
  relative viability: 1.28
VX-702 + Linsitinib; first compound 0.6325 µM
  relative viability: 0.976
VX-702 + Linsitinib; first compound 2 µM
  relative viability: 1.47
Dabrafenib + Palbociclib; first compound 0.009487 µM
  relative viability: 0.655
Dabrafenib + Palbociclib; first compound 0.03 µM
  relative viability: 0.623
Dabrafenib + Palbociclib; first compound 0.09487 µM
  relative viability: 0.642
Dabrafenib + Palbociclib; first compound 0.3 µM
  relative viability: 0.623
Dabrafenib + Navitoclax; first compound 0.009487 µM
  relative viability: 1.18
Dabrafenib + Navitoclax; first compound 0.03 µM
  relative viability: 1.09
Dabrafenib + Navitoclax; first compound 0.09487 µM
  relative viability: 1.01
Dabrafenib + Navitoclax; first compound 0.3 µM
  relative viability: 0.902

## NCI-H522
Dabrafenib + Palbociclib; first compound 0.009487 µM
  relative viability: 1.02
Dabrafenib + Palbociclib; first compound 0.03 µM
  relative viability: 0.932
Dabrafenib + Palbociclib; first compound 0.09487 µM
  relative viability: 0.952
Dabrafenib + Palbociclib; first compound 0.3 µM
  relative viability: 1.08

## NCI-H1299
VX-702 + Crizotinib; first compound 0.02 µM
  relative viability: 1.07
VX-702 + Crizotinib; first compound 0.2 µM
  relative viability: 0.97
VX-702 + Crizotinib; first compound 0.6325 µM
  relative viability: 0.942
VX-702 + Crizotinib; first compound 2 µM
  relative viability: 1.07
VX-702 + Linsitinib; first compound 0.02 µM
  relative viability: 1.17
VX-702 + Linsitinib; first compound 0.2 µM
  relative viability: 0.999
VX-702 + Linsitinib; first compound 0.6325 µM
  relative viability: 1.06
VX-702 + Linsitinib; first compound 2 µM
  relative viability: 1.09
Dabrafenib + Navitoclax; first compound 0.003 µM
  relative viability: 0.997
Dabrafenib + Navitoclax; first compound 0.009487 µM
  relative viability: 1.02
Dabrafenib + Navitoclax; first compound 0.03 µM
  relative viability: 1.06
Dabrafenib + Navitoclax; first compound 0.09487 µM
  relative viability: 1.01
Dabrafenib + Navitoclax; first compound 0.3 µM
  relative viability: 1.01

## IA-LM
VX-702 + Crizotinib; first compound 0.02 µM
  relative viability: 0.792
VX-702 + Crizotinib; first compound 0.2 µM
  relative viability: 0.862
VX-702 + Crizotinib; first compound 0.6325 µM
  relative viability: 0.722
VX-702 + Crizotinib; first compound 2 µM
  relative viability: 1.05
VX-702 + Linsitinib; first compound 0.02 µM
  relative viability: 0.585
VX-702 + Linsitinib; first compound 0.2 µM
  relative viability: 0.723
VX-702 + Linsitinib; first compound 0.6325 µM
  relative viability: 0.606
VX-702 + Linsitinib; first compound 2 µM
  relative viability: 0.557
Dabrafenib + Navitoclax; first compound 0.003 µM
  relative viability: 0.901
Dabrafenib + Navitoclax; first compound 0.009487 µM
  relative viability: 0.657
Dabrafenib + Navitoclax; first compound 0.03 µM
  relative viability: 0.649
Dabrafenib + Navitoclax; first compound 0.09487 µM
  relative viability: 0.304
Dabrafenib + Navitoclax; first compound 0.3 µM
  relative viability: 0.172

## NCI-H358
VX-702 + Crizotinib; first compound 0.02 µM
  relative viability: 0.659
VX-702 + Crizotinib; first compound 0.2 µM
  relative viability: 0.549
VX-702 + Crizotinib; first compound 0.6325 µM
  relative viability: 0.542
VX-702 + Crizotinib; first compound 2 µM
  relative viability: 0.681
VX-702 + Linsitinib; first compound 0.02 µM
  relative viability: 0.748
VX-702 + Linsitinib; first compound 0.2 µM
  relative viability: 0.728
VX-702 + Linsitinib; first compound 0.6325 µM
  relative viability: 0.613
VX-702 + Linsitinib; first compound 2 µM
  relative viability: 0.963
Dabrafenib + Palbociclib; first compound 0.003 µM
  relative viability: 0.111
Dabrafenib + Palbociclib; first compound 0.009487 µM
  relative viability: 0.149
Dabrafenib + Palbociclib; first compound 0.03 µM
  relative viability: 0.12
Dabrafenib + Palbociclib; first compound 0.09487 µM
  relative viability: 0.153
Dabrafenib + Palbociclib; first compound 0.3 µM
  relative viability: 0.122

## NCI-H596
VX-702 + Crizotinib; first compound 0.02 µM
  relative viability: 0.914
VX-702 + Crizotinib; first compound 0.2 µM
  relative viability: 0.986
VX-702 + Crizotinib; first compound 0.6325 µM
  relative viability: 1.02
VX-702 + Crizotinib; first compound 2 µM
  relative viability: 1.19
VX-702 + Linsitinib; first compound 0.02 µM
  relative viability: 0.996
VX-702 + Linsitinib; first compound 0.2 µM
  relative viability: 1.1
VX-702 + Linsitinib; first compound 0.6325 µM
  relative viability: 1.02
VX-702 + Linsitinib; first compound 2 µM
  relative viability: 1.1
Dabrafenib + Navitoclax; first compound 0.003 µM
  relative viability: 0.733
Dabrafenib + Navitoclax; first compound 0.009487 µM
  relative viability: 0.996
Dabrafenib + Navitoclax; first compound 0.03 µM
  relative viability: 0.764
Dabrafenib + Navitoclax; first compound 0.09487 µM
  relative viability: 1
Dabrafenib + Navitoclax; first compound 0.3 µM
  relative viability: 0.921

## NCI-H2170
VX-702 + Crizotinib; first compound 0.02 µM
  relative viability: 1.28
VX-702 + Crizotinib; first compound 0.2 µM
  relative viability: 1.09
VX-702 + Crizotinib; first compound 0.6325 µM
  relative viability: 1.24
VX-702 + Crizotinib; first compound 2 µM
  relative viability: 1.4
Dabrafenib + Palbociclib; first compound 0.003 µM
  relative viability: 0.429
Dabrafenib + Palbociclib; first compound 0.009487 µM
  relative viability: 0.377
Dabrafenib + Palbociclib; first compound 0.03 µM
  relative viability: 0.383
Dabrafenib + Palbociclib; first compound 0.09487 µM
  relative viability: 0.377
Dabrafenib + Palbociclib; first compound 0.3 µM
  relative viability: 0.397
Dabrafenib + Navitoclax; first compound 0.003 µM
  relative viability: 0.702
Dabrafenib + Navitoclax; first compound 0.009487 µM
  relative viability: 0.704
Dabrafenib + Navitoclax; first compound 0.03 µM
  relative viability: 0.463
Dabrafenib + Navitoclax; first compound 0.09487 µM
  relative viability: 0.641
Dabrafenib + Navitoclax; first compound 0.3 µM
  relative viability: 0.594

## EBC-1
VX-702 + Crizotinib; first compound 0.02 µM
  relative viability: 0.191
VX-702 + Crizotinib; first compound 0.2 µM
  relative viability: 0.18
VX-702 + Crizotinib; first compound 0.6325 µM
  relative viability: 0.158
VX-702 + Crizotinib; first compound 2 µM
  relative viability: 0.201
VX-702 + Linsitinib; first compound 0.02 µM
  relative viability: 1.07
VX-702 + Linsitinib; first compound 0.2 µM
  relative viability: 0.935
VX-702 + Linsitinib; first compound 0.6325 µM
  relative viability: 0.914
VX-702 + Linsitinib; first compound 2 µM
  relative viability: 0.993
Dabrafenib + Navitoclax; first compound 0.003 µM
  relative viability: 0.369
Dabrafenib + Navitoclax; first compound 0.009487 µM
  relative viability: 0.373
Dabrafenib + Navitoclax; first compound 0.03 µM
  relative viability: 0.32
Dabrafenib + Navitoclax; first compound 0.09487 µM
  relative viability: 0.145
Dabrafenib + Navitoclax; first compound 0.3 µM
  relative viability: 0.221

## NCI-H1563
VX-702 + Crizotinib; first compound 0.02 µM
  relative viability: 0.848
VX-702 + Crizotinib; first compound 0.2 µM
  relative viability: 0.875
VX-702 + Crizotinib; first compound 0.6325 µM
  relative viability: 0.83
VX-702 + Crizotinib; first compound 2 µM
  relative viability: 0.865
VX-702 + Linsitinib; first compound 0.02 µM
  relative viability: 1.23
VX-702 + Linsitinib; first compound 0.2 µM
  relative viability: 1.15
VX-702 + Linsitinib; first compound 0.6325 µM
  relative viability: 1.18
VX-702 + Linsitinib; first compound 2 µM
  relative viability: 1.14

## NCI-H2342
Dabrafenib + Palbociclib; first compound 0.003 µM
  relative viability: 0.511
Dabrafenib + Palbociclib; first compound 0.009487 µM
  relative viability: 0.566
Dabrafenib + Palbociclib; first compound 0.03 µM
  relative viability: 0.474
Dabrafenib + Palbociclib; first compound 0.09487 µM
  relative viability: 0.608
Dabrafenib + Palbociclib; first compound 0.3 µM
  relative viability: 0.523

## NCI-H661
VX-702 + Crizotinib; first compound 0.02 µM
  relative viability: 1.08
VX-702 + Crizotinib; first compound 0.2 µM
  relative viability: 0.977
VX-702 + Crizotinib; first compound 0.6325 µM
  relative viability: 0.939
VX-702 + Crizotinib; first compound 2 µM
  relative viability: 1.11
VX-702 + Linsitinib; first compound 0.02 µM
  relative viability: 0.523
VX-702 + Linsitinib; first compound 0.2 µM
  relative viability: 0.587
VX-702 + Linsitinib; first compound 0.6325 µM
  relative viability: 0.5
VX-702 + Linsitinib; first compound 2 µM
  relative viability: 0.826
Dabrafenib + Palbociclib; first compound 0.003 µM
  relative viability: 0.383
Dabrafenib + Palbociclib; first compound 0.009487 µM
  relative viability: 0.406
Dabrafenib + Palbociclib; first compound 0.03 µM
  relative viability: 0.426
Dabrafenib + Palbociclib; first compound 0.09487 µM
  relative viability: 0.458
Dabrafenib + Palbociclib; first compound 0.3 µM
  relative viability: 0.433

## A549
VX-702 + Crizotinib; first compound 0.02 µM
  relative viability: 0.754
VX-702 + Crizotinib; first compound 0.2 µM
  relative viability: 0.812
VX-702 + Crizotinib; first compound 0.6325 µM
  relative viability: 0.739
VX-702 + Crizotinib; first compound 2 µM
  relative viability: 1.08
VX-702 + Linsitinib; first compound 0.02 µM
  relative viability: 0.502
VX-702 + Linsitinib; first compound 0.2 µM
  relative viability: 0.579
VX-702 + Linsitinib; first compound 0.6325 µM
  relative viability: 0.57
VX-702 + Linsitinib; first compound 2 µM
  relative viability: 0.563
Dabrafenib + Navitoclax; first compound 0.003 µM
  relative viability: 1.09
Dabrafenib + Navitoclax; first compound 0.009487 µM
  relative viability: 1.26
Dabrafenib + Navitoclax; first compound 0.03 µM
  relative viability: 1.28
Dabrafenib + Navitoclax; first compound 0.09487 µM
  relative viability: 1.18
Dabrafenib + Navitoclax; first compound 0.3 µM
  relative viability: 1.2
